According to patent US6342537B1, “Gel for treatment of skin diseases and for disinfection of the skin” (priority 1994, dated 2002):
Where “and” joins values, the source holds several entries; their conditions need not be identical. Identical values can stand only once.

System: herpes simplex virus (HSV) type 1
Test: Inactivation of herpes simplex virus in infected MRC-5 cells by alcohols (Example 25); on HSV - CPE after 44 hours with the detecting cell-layer: key: 0: no CPE; 1: a few; 2: several; 3: all cells infected with HSV
Type: cell-based
Conditions: for HSV - CPE after 44 hours with the detecting cell-layer: duplicate wells; for inactivation of herpes simplex virus (in words): HSV type 1 infected MRC-5 cells
Description: Ethanol is an accepted disinfectant for viruses with an envelope. The purpose of this study was to measure the inactivating effect of “short-chained alcohols” on virus-infected cells.
Four 96 well plates with confluent MRC-5 cell were infected with herpes simplex virus (HSV) type 1. After appearance of 50% cytopathic effect (CPE), the culture medium was removed, and rows of 12 wells were treated with 25 μl/well of the alcohols or buffer after the following scheme: The first row with undiluted, and the following with 96%, 90%, 80%, 70%, 60% and 50% alcohol, respectively—all dilutions performed in buffer (PBS). To the last row was added buffer. After 2, 4, 8, 16 and 32 min, respectively, two wells in each row were emptied and the cells overlaid with PBS. The plate was then frozen at —80° C. Afterwards the wells were seeded with a detection layer of MRC-5 cells and the plates were placed at 37° C. for 44 hours. Virus surviving the treatment with alcohol was detected by the appearance of CPE, characteristic for HSV in the detection monolayer.

[1] = alcohol undiluted, 2 min with alcohol

Compound	HSV - CPE after 44 hours with the detecting cell-layer (50% alcohol in PBS, 2 min)	HSV - CPE after 44 hours with the detecting cell-layer (50% alcohol in PBS, 4 min)	HSV - CPE after 44 hours with the detecting cell-layer (50% alcohol in PBS, 8 min)	HSV - CPE after 44 hours with the detecting cell-layer (50% alcohol in PBS, 16 min)	HSV - CPE after 44 hours with the detecting cell-layer (50% alcohol in PBS, 32 min)	HSV - CPE after 44 hours with the detecting cell-layer (60% alcohol in PBS, 2 min)	HSV - CPE after 44 hours with the detecting cell-layer (60% alcohol in PBS, 4 min)	HSV - CPE after 44 hours with the detecting cell-layer (60% alcohol in PBS, 8 min)	HSV - CPE after 44 hours with the detecting cell-layer (60% alcohol in PBS, 16 min)	HSV - CPE after 44 hours with the detecting cell-layer (60% alcohol in PBS, 32 min)	HSV - CPE after 44 hours with the detecting cell-layer (70% alcohol in PBS, 2 min)	HSV - CPE after 44 hours with the detecting cell-layer (70% alcohol in PBS, 4 min)	HSV - CPE after 44 hours with the detecting cell-layer (70% alcohol in PBS, 8 min)	HSV - CPE after 44 hours with the detecting cell-layer (70% alcohol in PBS, 16 min)	HSV - CPE after 44 hours with the detecting cell-layer (70% alcohol in PBS, 32 min)	HSV - CPE after 44 hours with the detecting cell-layer (80% alcohol in PBS, 2 min)	HSV - CPE after 44 hours with the detecting cell-layer (80% alcohol in PBS, 4 min)	HSV - CPE after 44 hours with the detecting cell-layer (80% alcohol in PBS, 8 min)	HSV - CPE after 44 hours with the detecting cell-layer (80% alcohol in PBS, 16 min)	HSV - CPE after 44 hours with the detecting cell-layer (80% alcohol in PBS, 32 min)	further results
CCCO [Propanol]	2	3	3 and 2	3 and 2	1	1 and 2	2 and 1	1 and 0	1 and 0	0	1 and 2	1 and 0	1 and 0	0	0	0	0	0 and 1	0	0	HSV - CPE after 44 hours with the detecting cell-layer (90% alcohol in PBS, 2 min): 0; HSV - CPE after 44 hours with the detecting cell-layer (90% alcohol in PBS, 4 min): 0; HSV - CPE after 44 hours with the detecting cell-layer (90% alcohol in PBS, 8 min): 0; HSV - CPE after 44 hours with the detecting cell-layer (90% alcohol in PBS, 16 min): 0; HSV - CPE after 44 hours with the detecting cell-layer (90% alcohol in PBS, 32 min): 0; HSV - CPE after 44 hours with the detecting cell-layer (96% alcohol in PBS, 2 min): 0; HSV - CPE after 44 hours with the detecting cell-layer (96% alcohol in PBS, 4 min): 0; HSV - CPE after 44 hours with the detecting cell-layer (96% alcohol in PBS, 8 min): 0; HSV - CPE after 44 hours with the detecting cell-layer (96% alcohol in PBS, 16 min): 0; HSV - CPE after 44 hours with the detecting cell-layer (96% alcohol in PBS, 32 min): 0; inactivation of herpes simplex virus (in words): able to inactivate herpes simplex virus even intracellular virus; HSV - CPE after 44 hours with the detecting cell-layer [1]: 0; HSV - CPE after 44 hours with the detecting cell-layer (alcohol undiluted, 4 min): 0; HSV - CPE after 44 hours with the detecting cell-layer (alcohol undiluted, 8 min): 0; HSV - CPE after 44 hours with the detecting cell-layer (alcohol undiluted, 16 min): 0; HSV - CPE after 44 hours with the detecting cell-layer (alcohol undiluted, 32 min): 0
CO [Methanol]	1 and 0	1	1 and 2	2	1	1	0 and 1	1	0 and 1	1	1	1	1	1	0 and 1	1	0	1	0 and 1	1 and 0	HSV - CPE after 44 hours with the detecting cell-layer (90% alcohol in PBS, 2 min): 0; HSV - CPE after 44 hours with the detecting cell-layer (90% alcohol in PBS, 4 min): 0; HSV - CPE after 44 hours with the detecting cell-layer (90% alcohol in PBS, 8 min): 0 and 1; HSV - CPE after 44 hours with the detecting cell-layer (90% alcohol in PBS, 16 min): 1; HSV - CPE after 44 hours with the detecting cell-layer (90% alcohol in PBS, 32 min): 1 and 0; HSV - CPE after 44 hours with the detecting cell-layer (96% alcohol in PBS, 2 min): 0; HSV - CPE after 44 hours with the detecting cell-layer (96% alcohol in PBS, 4 min): 0; HSV - CPE after 44 hours with the detecting cell-layer (96% alcohol in PBS, 8 min): 0; HSV - CPE after 44 hours with the detecting cell-layer (96% alcohol in PBS, 16 min): 0 and 1; HSV - CPE after 44 hours with the detecting cell-layer (96% alcohol in PBS, 32 min): 1 and 0; inactivation of herpes simplex virus (in words): able to inactivate herpes simplex virus even intracellular virus; HSV - CPE after 44 hours with the detecting cell-layer [1]: 0; HSV - CPE after 44 hours with the detecting cell-layer (alcohol undiluted, 4 min): 0; HSV - CPE after 44 hours with the detecting cell-layer (alcohol undiluted, 8 min): 0; HSV - CPE after 44 hours with the detecting cell-layer (alcohol undiluted, 16 min): 0; HSV - CPE after 44 hours with the detecting cell-layer (alcohol undiluted, 32 min): 0
